Reference: ChEMBL document CHEMBL1759957, “Synthesis and antibacterial evaluation of novel 8-fluoro Norfloxacin derivatives as potential probes for methicillin and vancomycin-resistant Staphylococcus aureus” (2011)
≈ marks a conversion by molar mass, not a printed value.

Columns and labels:
Assay in all cases: microbe, parasite or virus in culture
Assay type in all cases: functional
[1] = test system: Staphylococcus aureus; settings: ATCC 25923, 24 h
Description: Antibacterial activity against methicillin- resistant Staphylococcus aureus ATCC 25923 after 24 hrs by spectrophotometry

[2] = test system: Klebsiella pneumoniae; settings: ATCC 27736, 24 h
Description: Antibacterial activity against Klebsiella pneumoniae ATCC 27736 after 24 hrs by spectrophotometry

[3] = test system: Staphylococcus aureus; settings: ATCC 29213, 24 h
Description: Antibacterial activity against methicillin- resistant and vancomycin resistant Staphylococcus aureus ATCC 29213 after 24 hrs by spectrophotometry

| Structure (SMILES) | MIC [1] [µg/mL] | MIC [2] [µg/mL] | MIC [3] [µg/mL] |
| --- | --- | --- | --- |
| CCn1cc(C(=O)O)c(=O)c2cc(F)c(N3CCN(Cc4ccccc4)CC3)c(F)c21 | 0.19 (≈ 0.444 µM) | 0.011 (≈ 0.0257 µM) | 0.19 (≈ 0.444 µM) |
| CCn1cc(C(=O)O)c(=O)c2cc(F)c(N3CCN(c4ccccc4)CC3)c(F)c21 | 0.39 (≈ 0.943 µM) | 0.09 (≈ 0.218 µM) | 0.09 (≈ 0.218 µM) |
| CCn1cc(C(=O)O)c(=O)c2cc(F)c(N3CCOCC3)c(F)c21 | 0.022 (≈ 0.065 µM) | 0.022 (≈ 0.065 µM) | 0.045 (≈ 0.133 µM) |
| CCn1cc(C(=O)O)c(=O)c2cc(F)c(N3CCCCC3)c(F)c21 | 0.19 (≈ 0.565 µM) | 0.19 (≈ 0.565 µM) | 0.39 (≈ 1.16 µM) |
| CCN1CCN(c2c(F)cc3c(=O)c(C(=O)O)cn(CC)c3c2F)CC1 | 0.78 (≈ 2.13 µM) | 0.19 (≈ 0.52 µM) | 0.39 (≈ 1.07 µM) |
| CCn1cc(C(=O)O)c(=O)c2cc(F)c(NCCN3CCOCC3)c(F)c21 | 3.12 (≈ 8.18 µM) | 1.56 (≈ 4.09 µM) |  |
| CCn1cc(C(=O)O)c(=O)c2cc(F)c(NCCCN3CCOCC3)c(F)c21 | 3.12 (≈ 7.89 µM) | 1.56 (≈ 3.95 µM) |  |
| CCCCNc1c(F)cc2c(=O)c(C(=O)O)cn(CC)c2c1F | 0.39 (≈ 1.2 µM) | 0.022 (≈ 0.0678 µM) | 0.39 (≈ 1.2 µM) |
| CCn1cc(C(=O)O)c(=O)c2cc(F)c(NC(C)(C)C)c(F)c21 | 12.5 (≈ 38.5 µM) | 0.09 (≈ 0.277 µM) |  |
| CCCNc1c(F)cc2c(=O)c(C(=O)O)cn(CC)c2c1F | 12.5 (≈ 40.3 µM) | 0.78 (≈ 2.51 µM) |  |
| CCn1cc(C(=O)O)c(=O)c2cc(F)c(NC(C)C)c(F)c21 | 0.78 (≈ 2.51 µM) | 0.09 (≈ 0.29 µM) | 0.78 (≈ 2.51 µM) |
| O=C(O)c1cn(Cc2ccc(C(F)(F)F)cc2)c2c(F)c(N3CCOCC3)c(F)cc2c1=O | 12.5 (≈ 26.7 µM) | 12.5 (≈ 26.7 µM) |  |
| O=C(O)c1cn(Cc2ccc(C(F)(F)F)cc2)c2c(F)c(N3CCCCC3)c(F)cc2c1=O | > 50 | 12.5 (≈ 26.8 µM) |  |
| O=C(O)c1cn(Cc2ccc(C(F)(F)F)cc2)c2c(F)c(N3CCNCC3)c(F)cc2c1=O | > 50 | 12.5 (≈ 26.7 µM) |  |
| CN1CCN(c2c(F)cc3c(=O)c(C(=O)O)cn(Cc4ccc(C(F)(F)F)cc4)c3c2F)CC1 | > 50 | > 50 |  |
| CCN1CCN(c2c(F)cc3c(=O)c(C(=O)O)cn(Cc4ccc(C(F)(F)F)cc4)c3c2F)CC1 | > 50 | > 50 |  |

| Structure (SMILES) | MIC [1] [µg/mL] | MIC [2] [µg/mL] | MIC [3] [µg/mL] |
| --- | --- | --- | --- |
| O=C(O)c1cn(Cc2ccc(C(F)(F)F)cc2)c2c(F)c(N3CCN(c4ccccc4)CC3)c(F)cc2c1=O | 0.78 (≈ 1.44 µM) | 0.39 (≈ 0.718 µM) | 1.56 (≈ 2.87 µM) |
| O=C(O)c1cn(Cc2ccc(C(F)(F)F)cc2)c2c(F)c(N3CCN(Cc4ccccc4)CC3)c(F)cc2c1=O | 1.56 (≈ 2.8 µM) | 1.56 (≈ 2.8 µM) |  |
| O=C(O)c1cn(Cc2ccc(C(F)(F)F)cc2)c2c(F)c(NCCN3CCOCC3)c(F)cc2c1=O | > 50 | 12.5 (≈ 24.4 µM) |  |
| O=C(O)c1cn(Cc2ccc(C(F)(F)F)cc2)c2c(F)c(NCCCN3CCOCC3)c(F)cc2c1=O | > 50 | 25 (≈ 47.6 µM) |  |
| CCCCNc1c(F)cc2c(=O)c(C(=O)O)cn(Cc3ccc(C(F)(F)F)cc3)c2c1F | > 50 | > 50 |  |
| CC(C)(C)Nc1c(F)cc2c(=O)c(C(=O)O)cn(Cc3ccc(C(F)(F)F)cc3)c2c1F | > 50 | > 50 |  |
| CCCNc1c(F)cc2c(=O)c(C(=O)O)cn(Cc3ccc(C(F)(F)F)cc3)c2c1F | 1.56 (≈ 3.54 µM) | 3.12 (≈ 7.08 µM) |  |
| CC(C)Nc1c(F)cc2c(=O)c(C(=O)O)cn(Cc3ccc(C(F)(F)F)cc3)c2c1F | 3.12 (≈ 7.08 µM) | 1.56 (≈ 3.54 µM) |  |
| CCn1cc(C(=O)O)c(=O)c2cc(F)c(N3CCN(c4nc(N5CCOCC5)nc(N5CCOCC5)n4)CC3)c(F)c21 | 3.12 (≈ 5.32 µM) | 3.12 (≈ 5.32 µM) |  |
| CCn1cc(C(=O)O)c(=O)c2cc(F)c(N3CCN(c4nc(N5CCCCC5)nc(N5CCCCC5)n4)CC3)c(F)c21 | > 50 | > 50 |  |
| CCn1cc(C(=O)O)c(=O)c2cc(F)c(N3CCN(c4nc(N5CCN(C)CC5)nc(N5CCN(C)CC5)n4)CC3)cc21 | 0.39 (≈ 0.656 µM) | 0.39 (≈ 0.656 µM) | 0.39 (≈ 0.656 µM) |
| CCn1cc(C(=O)O)c(=O)c2cc(F)c(N3CCN(c4nc(NCCN5CCOCC5)nc(NCCN5CCOCC5)n4)CC3)c(F)c21 | 0.78 (≈ 1.16 µM) | 0.78 (≈ 1.16 µM) | 1.56 (≈ 2.32 µM) |
| CCn1cc(C(=O)O)c(=O)c2cc(F)c(N3CCN(c4nc(NCCCN5CCOCC5)nc(NCCCN5CCOCC5)n4)CC3)c(F)c21 | 12.5 (≈ 17.8 µM) | 12.5 (≈ 17.8 µM) |  |
| CCCCNc1nc(NCCCC)nc(N2CCN(c3c(F)cc4c(=O)c(C(=O)O)cn(CC)c4c3F)CC2)n1 | 0.39 (≈ 0.698 µM) | 0.39 (≈ 0.698 µM) | 0.39 (≈ 0.698 µM) |
| CCn1cc(C(=O)O)c(=O)c2cc(F)c(N3CCN(c4nc(NC(C)(C)C)nc(NC(C)(C)C)n4)CC3)c(F)c21 | 3.12 (≈ 5.59 µM) | 0.39 (≈ 0.698 µM) |  |
